In publication PMC9260667, “Thioredoxin Reductase Inhibitors as Potential Antitumors: Mercury Compounds Efficacy in Glioma Cells” (Frontiers in Molecular Biosciences, 2022):

Assays:
[1] = molecular target: T1, TrxR (Mus musculus, UniProt Q9JLT4); assay type: cell-based; conditions: mitochondria, 1 µM, 24 h
T1 construct: These lysates were compared to a control group and used to quantify TrxR and Trx activity and expression; These fractions were used to quantify TrxR and Trx activity and expression; endogenous in cells; host or cells: GL261 mouse glioma cells (whole lysate, cytosolic and mitochondrial fractions)
T1 sequence (Q9JLT4 35-524): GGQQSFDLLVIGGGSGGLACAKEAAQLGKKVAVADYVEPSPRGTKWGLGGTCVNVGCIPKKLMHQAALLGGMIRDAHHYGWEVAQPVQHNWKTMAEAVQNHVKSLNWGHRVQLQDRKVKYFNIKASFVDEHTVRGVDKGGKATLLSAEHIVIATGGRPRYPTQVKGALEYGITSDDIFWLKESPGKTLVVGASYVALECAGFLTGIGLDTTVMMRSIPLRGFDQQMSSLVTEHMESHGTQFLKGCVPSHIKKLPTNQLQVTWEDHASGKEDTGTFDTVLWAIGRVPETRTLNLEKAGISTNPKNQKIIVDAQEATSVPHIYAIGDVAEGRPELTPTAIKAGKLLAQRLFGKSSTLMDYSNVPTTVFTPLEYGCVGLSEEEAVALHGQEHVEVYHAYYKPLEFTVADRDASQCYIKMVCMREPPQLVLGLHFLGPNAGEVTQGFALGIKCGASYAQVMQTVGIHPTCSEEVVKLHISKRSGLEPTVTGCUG
Experimental: (§1) Total cell lysates were prepared according to previous protocols ([Branco et al., 2014]). 1 × 10^6 cells were plated in […] culture dishes incubated at 37°C until reaching 70–80% confluence. At this point, the culture medium was refreshed and TmHg and EtHg (0.5; 1; 2 µM) were added and incubated at 37°C for 24 h, after which cells were collected by trypsinization and washed with PBS 1x. Subsequently, the pellet was resuspended in lysis buffer (25 mM TrisCl, pH 7.5; 100 mM NaCl; 2.5 mM EDTA; 2.5 mM EGTA; 20 mM NaF, 1 mM sodium orthovanadate, 20 mM sodium pyrophosphate; 20 mM of sodium β-glycerophosphate, 0.5% Triton X-100, and 1 tablet of protease inhibitor cocktail per 10 ml; Roche) vortexed and frozen at −20°C. These lysates were compared to a control group and used to quantify TrxR and Trx activity and expression as described below.
(§2) To obtain the mitochondrial and cytosolic fractions, after exposure to Hg compounds cells were washed and suspended in mitochondrial isolation buffer (210 mM mannitol, 70 mM sucrose, 1 mM EDTA, 10 mM Hepes–NaOH, and pH 7.5), containing protease inhibitor cocktail (Roche). Cells were disrupted with a Teflon pestle and then centrifuged at 600 g for 10 min at 4°C. The resulting nuclear pellets were discarded, and the supernatant was further centrifuged at 13,000 g and 4°C for 15 min, to obtain the mitochondrial pellets and the supernatant soluble fraction. Mitochondrial pellets were treated with cell lysis buffer as described above for whole-cell lysates and the supernatant fraction was further centrifuged at 100,000 g and 4°C for 1 h, to produce the cytosolic fraction ([Branco et al., 2014]). These fractions were used to quantify TrxR and Trx activity and expression as described below.
(§3) The enzymatic activity of TrxR and Trx was determined according to the insulin end-point assay described by [Arnér and Holmgren (2000)] with modifications ([Branco et al., 2014]).
(§4) In parallel, control wells were prepared to contain the same reagents previously mentioned apart from Trx. After the incubation period, 250 µL of a 1 mM DTNB solution in 6 M guanidine-HCL (pH 8.0) was added to wells, and absorbance was measured at 412 nm in a microplate reader (Zenyth 3100, Anthos Labtec Instruments). […] The same procedure was done for the determination of Trx activity, but the samples were incubated with 100 nM of recombinant rat TrxR (IMCO Corp, Sweden) instead of Trx ([Branco et al., 2014]).

[2] = tested on: Trx; assay type: cell-based, mouse; conditions: whole-cell lysates, GL261 exposed 24 h
Experimental: as §1, §2, §3, §4

[3] = tested on: TrxR; assay type: cell-based, mouse; conditions: for decrease of TrxR activity: cytosol, 1 µM, 24 h; for IC50: whole-cell lysates, GL261 exposed 24 h
Experimental: as §1, §2, §3, §4

[4] = tested on: GL261 cells; test: cells; assay type: cell-based, mouse; conditions: for increase of LDH release upon co-exposure with TMZ: GL261, 200 µM TMZ + 1 µM mercury compound; for EC50: GL261, 24 h exposure, read-out: EC50 (LDH assay)
Experimental: Cells were seeded in 96-well plates for 24 h prior to the addition of TmHg, EtHg (1 µM), TMZ (200, 400, and 800 µM), and for the 48 h end point the co-exposure of TMZ 200 µM with 1 µM EtHg and 1 µM TmHg. After exposure for 24 and 48 h, the supernatant was transferred to a fresh plate and a lysis buffer (10×) (Thermo Scientific™ Pierce™) was added to wells containing cells and incubated at 37°C for 45 min. LDH activity was evaluated using LDH Cytotoxicity Assay Kit from Thermo Scientific™ Pierce™ in the supernatant and lysate by the addition of lactate (substrate), a tetrazolium salt, and NAD^+ (cofactor) (Reaction Mixture), according to the manufacturer’s instructions. Following 30 min of incubation in the dark at room temperature, LDH release was assessed by measuring the absorbance at 490 and 680 nm in a microplate reader (Omega BMG LABTECH). The release of LDH was quantified as the ratio between the amount in the supernatant and total LDH (supernatant + lysate) ([Branco et al., 2017]).

[5] = tested on: Trx1 and Trx2; test: Trx oxidation state (Redox Western); assay type: cell-based, mouse; conditions: GL261, 1 µM, 24 h
Experimental: The redox state of Trx1 and Trx2 was evaluated by the quantification of the number of reduced -SH groups (Free -SH), according to the Protein Electrophoretic Mobility Shift Assay ([Bersani et al., 2002]; [Branco et al., 2017]).
Briefly, after exposure to the TmHg and EtHg for 24 h, cell pellets were resuspended in Sample Solution (SS - Tris 50 mM, Urea 8 M, pH 8.3) containing 30 mM of iodoacetic acid (IAA; Sigma) and incubated at 37°C for 30 min to alkylate free thiols. This was followed by centrifugation at 13,000 g for 10 min, and the resulting supernatant was washed 3 times with an acetone/1 M HCl mix (98:2 v/v), followed by centrifugation at 13,000 g for 5 min. After evaporation of the acetone mixture, the resulting pellet was incubated at 37°C for 30 min in a SS solution containing 5 mM of DTT to reduce thiols oxidized by TmHg and EtHg. Posteriorly, these thiols were alkylated with SS containing 10 mM iodoacetamide (IAM; Sigma) at 37°C for 30 min.
Next, the samples were loaded onto a Urea-PAGE gel (stacking gel: 4% acrylamide; run gel: 12% acrylamide; 8 M Urea) and run at 10 mA. After 2 h, the proteins in the gel were transferred to a nitrocellulose membrane blocked with skimmed milk and incubated with respective antibodies - Trx1 rabbit polyclonal IgG (ATRX8, IMCO Corp.), Trx2 rabbit polyclonal IgG (sc-50335, Sta. Cruz) and mouse anti-rabbit IgG-HRP (sc-2357, Sta. Cruz). […]

Structure (SMILES) | decrease of TrxR activity [1] | IC50 [2] | decrease of TrxR activity [3] | IC50 [3] | increase of LDH release upon co-exposure with TMZ [4] | EC50 [4] | EC50 (LDH) fold lower in GL261 than in SH-SY5Y cells ([4]; GL261 versus previously reported SH-SY5Y value (Branco et al., 2017)) | redox states of Trx1 and Trx2 [5]
C[CH2][Hg] [EtHg, ethylmercury] | lesser effect | 1300 nM | 50% | 800 nM | greater than 50% | 1710 ± 400 nM | 3 fold | increasing the oxidation of Cys residues in both isoforms
C[CH2][Hg][S]c1ccccc1C(=O)[O-].[Na+] [TmHg, thimerosal] | 60% | 700 nM | 60% | 700 nM | greater than 50% | 1310 ± 200 nM |  | increasing the oxidation of Cys residues in both isoforms
